{"source": "patent US4000310A", "about": "“Pharmaceutical compositions containing 6-methyl-3,4-diphenyl-3,4,5,6-tetrahydro-2-pyrone or derivatives thereof” (Union Chimique Continentale-U.C.C, priority 1974, dated 1976)", "key": {"rat [1]": {"tested_on": "rat", "assay": "Observation of the animals, rat", "format": "in vivo, rat (male, Wistar Af stock)", "protocol": "(§1) All the experiments described below were carried out using male rats weighing from 170 to 220 g (Wistar Af stock) and male mice weighing from 18 to 23 g (Swiss NMRI stock).\n(§2) All the experiments took place in a laboratory with a constant temperature (22° ± 1° C).\n(§3) All the experiments were carried out blind (without the experimenter knowing, at the time of the tests, which animals had received the substance presumed active).\n(§4) Unless otherwise stated, 10 animals were always used per point."}, "mouse [2]": {"tested_on": "mouse", "assay": "Motor activity in the mouse (actimeters with photoelectric cells)", "format": "in vivo, mouse (male, Swiss NMRI stock)", "conditions": "for motor activity relative to the control group: 64 mg/kg oral", "protocol": "as §1\nMotor activity was determined using actimeters with photoelectric cells (Boissier and Simon, Arch. int. Pharmacodyn., 1965, 158, 212-221). A minimum of 12 animals were always used per point.\na. MDTP is administered orally at variable times before activity is measured.\nb. When administered orally 30 minutes before the actograph is taken, MDTP increases the motor activity of mice.\nc. When administered orally immediately before the actograph is taken, MDTP (128 mg/kg) brings a marked increase in the motor activity of mice up to the 150th minute (Table I)."}, "mouse [3]": {"tested_on": "mouse", "assay": "Interaction with electric shocks", "format": "in vivo, mouse (male, Swiss NMRI stock)", "conditions": "mouse, 16, 32, 64 or 128 mg/kg oral 60 min before electric shock", "protocol": "as §1"}, "[4]": {"assay": "Acute toxicity in the rat", "format": "in vivo", "conditions": "in vivo", "protocol": "as §1, §2, §3, §4\n(§5) In the rat, with either oral or intraperitoneal administration, the LD50 of 6-methyl 3,4-diphenyl-3,4,5,6-tetrahydro 2-pyrone was over 300 mg/kg."}, "rat [5]": {"tested_on": "rat", "assay": "Acute toxicity in the rat", "format": "in vivo", "protocol": "as §1, §2, §3, §4, §5"}, "[6]": {"assay": "Determination of acute toxicity in the mouse", "format": "in vivo", "conditions": "in vivo, Behrens and Karber", "protocol": "as §1, §2, §3, §4"}, "mouse [7]": {"tested_on": "mouse", "assay": "Determination of acute toxicity in the mouse", "format": "in vivo", "protocol": "as §1, §2, §3, §4"}, "rat [8]": {"tested_on": "rat", "assay": "Motor activity in the rat (actimeters with photoelectric cells)", "format": "in vivo, rat (male, Wistar Af stock)", "protocol": "as §1\nMotor activity was determined with the aid of actimeters with photoelectric cells described by Tedeschi and Coll (J. Pharm. sci. 1964, 53, 1046-1049). A minimum of 10 animals were always used per point. They show a large increase in the motor activity of rats, which becomes significant from a dose of 32 mg/kg given orally."}, "[9]": {"conditions": "16 mg/kg orally 15 min before test"}, "[10]": {"conditions": "32 mg/kg orally 15 min before test"}, "[11]": {"conditions": "64 mg/kg orally 15 min before test"}, "[12]": {"conditions": "128 mg/kg orally 15 min before test"}}, "data": [{"smiles": "CC1CC(c2ccccc2)C(c2ccccc2)C(=O)O1", "note": "(stereo not shown) [MDTP, 6-methyl-3,4-diphenyl-3,4,5,6-tetrahydro-2-pyrone]", "values": [{"measurement": "sexual behaviour", "setting": "rat [1]", "result": "An increase in sexual behaviour"}, {"measurement": "diameter of the pupils, rectal temperature", "setting": "rat [1]; doses below toxic level", "result": "no change in diameter of the pupils or the rectal temperature"}, {"measurement": "motor incoordination, abnormal or stereotyped movements", "setting": "rat [1]; doses below toxic level", "result": "not accompanied by motor incoordination or by abnormal or stereotyped movements"}, {"measurement": "hyperthermia", "setting": "rat [1]; doses very close to lethal level", "result": "moderate hyperthermia"}, {"measurement": "toxic signs", "setting": "rat [1]; in vivo", "result": "tremors, hyperreactivity to very intense stimuli, interaggressiveness and convulsive phenomena with the rear paws stretched"}, {"measurement": "excitation on observation", "setting": "rat [1]; oral or intraperitoneal, from 16 mg/kg, below toxic level", "result": "slight excitation is observed with increased reaction to touching or to sound stimuli"}, {"measurement": "minimal effective dose", "setting": "rat [1]; oral or intraperitoneal, read-out: dose from which slight excitation is observed", "result": 16, "unit": "mg/kg"}, {"measurement": "motor activity relative to the control group", "setting": "mouse [2]; 15 min pretreatment", "result": 221, "unit": "%"}, {"measurement": "motor activity relative to the control group", "setting": "mouse [2]; 30 min pretreatment", "result": 192, "unit": "%"}, {"measurement": "motor activity relative to the control group", "setting": "mouse [2]; 60 min pretreatment", "result": 161, "unit": "%"}, {"measurement": "motor activity relative to the control group", "setting": "mouse [2]; 120 min pretreatment", "result": 136, "unit": "%"}, {"measurement": "Number of bars passed over by mice, 150 to 180 min", "setting": "mouse [2]; 128 mg/kg orally, control group 8", "result": 25}, {"measurement": "Number of bars passed over by mice, 60 to 90 min", "setting": "mouse [2]; 128 mg/kg orally, control group 12", "result": 244}, {"measurement": "Number of bars passed over by mice, 120 to 150 min", "setting": "mouse [2]; 128 mg/kg orally, control group 14", "result": 66}, {"measurement": "Number of bars passed over by mice, 90 to 120 min", "setting": "mouse [2]; 128 mg/kg orally, control group 15", "result": 99}, {"measurement": "Number of bars passed over by mice, 30 to 60 min", "setting": "mouse [2]; 128 mg/kg orally, control group 82", "result": 428}, {"measurement": "Number of bars passed over by mice, 0 to 30 min", "setting": "mouse [2]; 128 mg/kg orally, control group 390", "result": 846}, {"measurement": "minimal effective dose", "setting": "mouse [2]; 0.5 h, mouse, oral, 30 min before actograph, read-out: dose from which increase in motor activity becomes significant", "result": 32, "unit": "mg/kg"}, {"measurement": "dose dependence of increase in motor activity", "setting": "mouse [2]; mouse, oral, 30 min before actograph", "result": "proportional to the dose administered"}, {"measurement": "duration or form of convulsive attacks", "setting": "mouse [3]", "result": "did not affect either the duration or the form of the convulsive attacks"}, {"measurement": "mortality after the attack", "setting": "mouse [3]", "result": "did not lead to any increase in mortality after the attack"}, {"measurement": "LD50", "setting": "[4]; ip, intraperitoneal", "result": "> 300", "unit": "mg/kg"}, {"measurement": "LD50", "setting": "[4]; oral", "result": "> 300", "unit": "mg/kg"}, {"measurement": "ratio LD50/ED 50", "setting": "rat [5]", "result": "over 10/1"}, {"measurement": "LD50", "setting": "[6]; ip, intraperitoneal", "result": 150, "unit": "mg/kg"}, {"measurement": "LD50", "setting": "[6]; oral", "result": 625, "unit": "mg/kg"}, {"measurement": "ratio LD50/ED 50", "setting": "mouse [7]", "result": "approximately 20/1"}, {"measurement": "Number of bars passed over after 5 min", "setting": "rat [8]; [9]", "result": "131 % of control group"}, {"measurement": "Number of bars passed over after 10 min", "setting": "rat [8]; [9]", "result": "135 % of control group"}, {"measurement": "Number of bars passed over after 15 min", "setting": "rat [8]; [9]", "result": "148 % of control group"}, {"measurement": "Number of bars passed over after 20 min", "setting": "rat [8]; [9]", "result": "145 % of control group"}, {"measurement": "Number of bars passed over after 25 min", "setting": "rat [8]; [9]", "result": "144 % of control group"}, {"measurement": "Number of bars passed over after 30 min", "setting": "rat [8]; [9]", "result": "133 % of control group"}, {"measurement": "Number of bars passed over after 5 min", "setting": "rat [8]; [10]", "result": "186 % of control group"}, {"measurement": "Number of bars passed over after 10 min", "setting": "rat [8]; [10]", "result": "184 % of control group"}, {"measurement": "Number of bars passed over after 15 min", "setting": "rat [8]; [10]", "result": "135 % of control group"}, {"measurement": "Number of bars passed over after 20 min", "setting": "rat [8]; [10]", "result": "138 % of control group"}, {"measurement": "Number of bars passed over after 25 min", "setting": "rat [8]; [10]", "result": "155 % of control group"}, {"measurement": "Number of bars passed over after 30 min", "setting": "rat [8]; [10]", "result": "161 % of control group"}, {"measurement": "Number of bars passed over after 5 min", "setting": "rat [8]; [11]", "result": "155 % of control group"}, {"measurement": "Number of bars passed over after 10 min", "setting": "rat [8]; [11]", "result": "181 % of control group"}, {"measurement": "Number of bars passed over after 15 min", "setting": "rat [8]; [11]", "result": "178 % of control group"}, {"measurement": "Number of bars passed over after 20 min", "setting": "rat [8]; [11]", "result": "200 % of control group"}, {"measurement": "Number of bars passed over after 25 min", "setting": "rat [8]; [11]", "result": "186 % of control group"}, {"measurement": "Number of bars passed over after 30 min", "setting": "rat [8]; [11]", "result": "195 % of control group"}, {"measurement": "Number of bars passed over after 5 min", "setting": "rat [8]; [12]", "result": "210 % of control group"}, {"measurement": "Number of bars passed over after 10 min", "setting": "rat [8]; [12]", "result": "215 % of control group"}, {"measurement": "Number of bars passed over after 15 min", "setting": "rat [8]; [12]", "result": "209 % of control group"}, {"measurement": "Number of bars passed over after 20 min", "setting": "rat [8]; [12]", "result": "217 % of control group"}, {"measurement": "Number of bars passed over after 25 min", "setting": "rat [8]; [12]", "result": "215 % of control group"}, {"measurement": "Number of bars passed over after 30 min", "setting": "rat [8]; [12]", "result": "201 % of control group"}, {"measurement": "minimal effective dose", "setting": "rat [8]; oral, read-out: dose from which increase in motor activity becomes significant", "result": 32, "unit": "mg/kg"}]}]}
